One data set has as its target T1, hERG channel (Homo sapiens, UniProt Q12809).
T1 construct: expressed in transfected cells; host or cells: CHO (CHOhERG)
Nature of the data set: hERG channel inhibition assay (patch-clamp, CHOhERG cells). The note with it: for IC50 / IC20: CHOhERG cells, whole-cell patch-clamp; for IC20: human, CHO cells stably expressing hERG (CHOhERG); for hERG IC20/TLR7 IC50 / hERG IC20/TLR8 IC50 / hERG IC20/TLR9 IC50: safety ratio; for hERG IC20/TLR7 IC50: hERG IC20 over HEK/hTLR7 IC50; for hERG IC20/TLR8 IC50: hERG IC20 over HEK/hTLR8 IC50; for hERG IC20/TLR9 IC50: hERG IC20 over HEK/hTLR9 IC50. The data set is classed as cell-based. The method, then: The hERG K^+ channels were cloned in humans and stably expressed in a CHO (Chinese hamster ovary) cell line. CHOhERG cells were used for patch-clamp (voltage-clamp, whole-cell) experiments. Cells were stimulated by a voltage pattern to activate hERG channels and conduct IKhERG currents (rapid delayed outward rectifier potassium current of the hERG channel). After the cells were stabilized for a few minutes, the amplitude and kinetics of IKhERG were recorded at a stimulation frequency of 0.1 Hz (6 bpm). Thereafter, the test compound was added to the preparation at increasing concentrations. For each concentration, an attempt was made to reach a steady-state effect, usually, this was achieved within 3-10 min at which time the next highest concentration was applied. The amplitude and kinetics of IKhERG are recorded in each concentration of the drug which were compared to the control values (taken as 100%). (references: Redfern W S, Carlsson L, Davis A S, Lynch W G, MacKenzie I, Palethorpe S, Siegl P K, Strang I, Sullivan A T, Wallis R, Camm A J, Hammond T G. 2003; Relationships between preclinical cardiac electrophysiology, clinical QT interval prolongation and torsade de pointes for a broad range of drugs: evidence for a provisional safety margin in drug development. Cardiovasc. Res. 58:32-45, Sanguinetti MC, Tristani-Firouzi M. 2006; hERG potassium channels and cardiac arrhythmia. Nature 440:463-469, Webster R, Leishman D, Walker D. 2002; Towards a drug concentration effect relationship for QT prolongation and torsades de pointes. Curr. Opin. Drug Discov. Devel. 5:116-26).
For orientation: The hERG channel carries a current that helps repolarise heart muscle cells.

The target in another data set is T2, TLR9 (Homo sapiens, UniProt Q9NR96).
T2 sequence (Q9NR96 26-1032): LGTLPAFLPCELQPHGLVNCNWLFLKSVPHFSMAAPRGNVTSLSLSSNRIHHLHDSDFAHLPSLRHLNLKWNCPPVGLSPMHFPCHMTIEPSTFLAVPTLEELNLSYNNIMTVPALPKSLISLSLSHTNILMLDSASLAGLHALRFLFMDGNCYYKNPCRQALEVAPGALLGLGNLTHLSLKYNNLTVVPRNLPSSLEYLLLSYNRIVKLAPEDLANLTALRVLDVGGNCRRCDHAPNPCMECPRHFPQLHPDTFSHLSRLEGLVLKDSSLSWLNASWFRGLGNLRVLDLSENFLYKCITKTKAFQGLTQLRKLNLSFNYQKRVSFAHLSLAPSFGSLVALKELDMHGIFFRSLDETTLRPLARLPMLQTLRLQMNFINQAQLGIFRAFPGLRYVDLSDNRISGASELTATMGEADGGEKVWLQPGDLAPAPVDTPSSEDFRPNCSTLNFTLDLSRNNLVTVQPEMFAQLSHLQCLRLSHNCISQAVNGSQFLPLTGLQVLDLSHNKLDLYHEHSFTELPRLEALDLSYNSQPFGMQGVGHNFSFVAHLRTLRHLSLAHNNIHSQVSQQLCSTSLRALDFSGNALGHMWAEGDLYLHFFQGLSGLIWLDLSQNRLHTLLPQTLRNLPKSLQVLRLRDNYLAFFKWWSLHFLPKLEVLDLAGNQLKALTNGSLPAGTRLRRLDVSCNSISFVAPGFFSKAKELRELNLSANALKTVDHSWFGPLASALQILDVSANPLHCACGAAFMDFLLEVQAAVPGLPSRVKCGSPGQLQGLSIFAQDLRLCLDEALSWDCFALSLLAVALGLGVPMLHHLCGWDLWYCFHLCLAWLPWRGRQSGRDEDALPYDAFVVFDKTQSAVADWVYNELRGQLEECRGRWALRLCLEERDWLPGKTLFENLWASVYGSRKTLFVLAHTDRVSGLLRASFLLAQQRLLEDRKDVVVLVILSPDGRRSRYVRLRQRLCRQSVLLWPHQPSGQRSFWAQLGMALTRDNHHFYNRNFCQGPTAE
Nature of the data set: HEK293-Blue-hTLR-9 cells assay (SEAP reporter, ODN2006 stimulation). The data set is classed as cell-based. Also on record: host or cells: HEK293 (HEK-Blue hTLR9). The note with it: HEK293-Blue-hTLR9 cells, ODN2006, 20 hrs; read-out: HEK/hTLR9 IC50. In a few lines: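 Antagonist format: cells in DMEM/10% FBS exposed to serially diluted compound (1% DMSO) plus ODN2006 stimulation for 20 h at 37°C. Supernatant SEAP measured with QUANTI-Blue substrate, 2 h at 37°C, absorbance 620–655 nm.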

Bounds are passed on as bounds.

T1 sequence (Q12809 whole entry): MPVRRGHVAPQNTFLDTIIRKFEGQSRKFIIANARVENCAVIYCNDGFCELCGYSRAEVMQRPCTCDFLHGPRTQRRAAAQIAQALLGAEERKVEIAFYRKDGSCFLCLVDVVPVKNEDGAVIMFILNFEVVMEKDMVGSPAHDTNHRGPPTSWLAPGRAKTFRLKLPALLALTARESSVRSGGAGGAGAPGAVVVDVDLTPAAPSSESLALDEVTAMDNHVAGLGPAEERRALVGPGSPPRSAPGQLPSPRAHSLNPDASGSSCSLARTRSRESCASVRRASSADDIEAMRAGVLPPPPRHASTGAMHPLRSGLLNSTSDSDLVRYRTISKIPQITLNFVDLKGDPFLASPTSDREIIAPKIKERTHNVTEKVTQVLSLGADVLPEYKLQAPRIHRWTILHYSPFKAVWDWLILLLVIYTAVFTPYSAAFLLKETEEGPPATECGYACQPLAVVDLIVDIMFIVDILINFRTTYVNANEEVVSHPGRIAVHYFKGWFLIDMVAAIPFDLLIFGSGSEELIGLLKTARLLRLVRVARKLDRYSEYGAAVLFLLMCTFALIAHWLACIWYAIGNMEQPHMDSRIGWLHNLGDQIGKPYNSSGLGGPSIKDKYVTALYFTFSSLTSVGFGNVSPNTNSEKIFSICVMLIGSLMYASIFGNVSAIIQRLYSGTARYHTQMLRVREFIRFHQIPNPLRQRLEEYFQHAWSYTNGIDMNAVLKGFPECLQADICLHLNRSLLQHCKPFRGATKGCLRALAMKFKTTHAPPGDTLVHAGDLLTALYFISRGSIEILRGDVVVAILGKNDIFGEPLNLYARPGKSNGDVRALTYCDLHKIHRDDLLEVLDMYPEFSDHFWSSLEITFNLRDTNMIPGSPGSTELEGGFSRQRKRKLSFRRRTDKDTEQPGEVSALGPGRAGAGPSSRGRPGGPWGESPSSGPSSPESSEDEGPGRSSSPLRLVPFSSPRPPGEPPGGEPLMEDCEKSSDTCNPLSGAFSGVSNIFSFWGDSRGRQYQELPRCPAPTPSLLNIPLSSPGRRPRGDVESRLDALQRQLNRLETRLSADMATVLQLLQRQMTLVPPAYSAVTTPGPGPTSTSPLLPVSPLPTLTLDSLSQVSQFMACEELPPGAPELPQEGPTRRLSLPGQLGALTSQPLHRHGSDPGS

In general, IC20 refers to the point of the concentration-response curve where the effect stands at 20%. A low value points to an effect from little substance. `C[C@H]1CN(c2ccnc3c2cnn3C)Cc2ccc(OC[C@@H]3CNCCN3)cc21` [Example 19, (4R)-4-methyl-2-(1-methylpyrazolo[3,4-b]pyridin-4-yl)-6-[[(2S)-piperazin-2-yl]methoxy]-3,4-dihydro-1H-isoquinoline]: at hERG channel, the IC50 was over 20 µM, the 20% effect concentration (IC20) was 6.3 µM, the “hERG IC20/TLR7 IC50” value turned out to be 787.5 and the “hERG IC20/TLR8 IC50” value is 1575.0. Besides, the “hERG IC20/TLR9 IC50” value on hERG channel is reported as 62.4. Moreover, on TLR9, the IC50 amounted to 0.101 µM.
For `C[C@H]1CN(c2ccnc3c2cnn3C)Cc2ccc(N3C[C@@H]4CNCCN4C3=O)cc21` [Example 25, (8aS)-2-[(4R)-4-methyl-2-(1-methylpyrazolo[3,4-b]pyridin-4-yl)-3,4-dihydro-1H-isoquinolin-6-yl]-1,5,6,7,8,8a-hexahydroimidazo[1,5-a]pyrazin-3-one], at hERG channel, the IC50 was over 20 µM, the IC20 is over 10 µM, the “hERG IC20/TLR7 IC50” value was over 666.7 and the “hERG IC20/TLR8 IC50” value was over 33333.3. The “hERG IC20/TLR9 IC50” value on hERG channel is given as over 34.4. Also, the IC50 on TLR9 was 0.291 µM.
For the compound `C[C@H]1CN(c2ccnc3c2cnn3C)Cc2ccc(OCCN3CCNCC3)cc21` [Example 40, (4R)-4-methyl-2-(1-methylpyrazolo[3,4-b]pyridin-4-yl)-6-(2-piperazin-1-ylethoxy)-3,4-dihydro-1H-isoquinoline], at hERG channel, the IC50 is over 20 µM, the IC20 was over 10 µM, the “hERG IC20/TLR7 IC50” value is over 1250.0 and the “hERG IC20/TLR8 IC50” value is listed as over 1428.6. Further, the “hERG IC20/TLR9 IC50” value at hERG channel is listed as over 30.7. In addition, the IC50 on TLR9 was found to be 0.326 µM.
For the compound `C[C@H]1CN(c2ccnc3c2cnn3C)Cc2ccc(N3CC4(CNC4)CC3=O)cc21` [Example 34, 6-[(4R)-4-methyl-2-(1-methylpyrazolo[3,4-b]pyridin-4-yl)-3,4-dihydro-1H-isoquinolin-6-yl]-2,6-diazaspiro[3.4]octan-7-one], on hERG channel, the IC50 was over 20 µM, the IC20 is over 10 µM, the “hERG IC20/TLR7 IC50” value is over 384.6 and the “hERG IC20/TLR8 IC50” value is listed as over 384.6. Further, the “hERG IC20/TLR9 IC50” value on hERG channel is recorded as over 50.5. Besides, the IC50 at TLR9 is 0.198 µM.
As for `Cn1ncc2c(N3CCc4cc(N5CCNCC5)ccc4C3)ccnc21` [Example 3, 2-(1-methylpyrazolo[3,4-b]pyridin-4-yl)-6-piperazin-1-yl-3,4-dihydro-1H-isoquinoline], at hERG channel, the IC50 is over 20 µM, the IC20 is over 10 µM, the “hERG IC20/TLR7 IC50” value is over 526.3 and the “hERG IC20/TLR8 IC50” value was over 178.6. For the same compound, the “hERG IC20/TLR9 IC50” value on hERG channel is over 54.1. Also, the IC50 on TLR9 was 0.185 µM.
For `C[C@H]1CN(c2ccnc3c2cnn3C)Cc2ccc(OC[C@H]3CNCCN3)cc21` [Example 18, (4R)-4-methyl-2-(1-methylpyrazolo[3,4-b]pyridin-4-yl)-6-[[(2R)-piperazin-2-yl]methoxy]-3,4-dihydro-1H-isoquinoline], on hERG channel, the IC50 was over 20 µM, the 20% effect concentration (IC20) is over 10 µM, the “hERG IC20/TLR7 IC50” value was over 1250.0 and the “hERG IC20/TLR8 IC50” value is over 2500.0. On hERG channel, the “hERG IC20/TLR9 IC50” value is over 90.1. On TLR9, the IC50 came out at 0.111 µM.

(Values after patent publication US20240317735A1, “HYDROISOQUINOLINE OR HYDRONAPHTHYRIDINE COMPOUNDS FOR THE TREATMENT OF AUTOIMMUNE DISEASE” (Hoffmann-La Roche Inc., priority 2020, published 2024).)
